{"source": "patent US8680133B2", "about": "“Alkyl indole-3-carbinol-derived antitumor agents” (The Ohio State University Research Foundation, priority 2009, dated 2014)", "key": {"M14": {"tested_on": "M14", "assay": "NCI60 screening, Melanoma, M14", "type": "cell-based, human"}, "MDA-MB-435": {"tested_on": "MDA-MB-435", "assay": "NCI60 screening, Melanoma, MDA-MB-435", "type": "cell-based, human"}}, "data": [{"compound": "Cc1ccc2c(c1)c(CO)cn2S(=O)(=O)c1ccc(Cl)c([N+](=O)[O-])c1", "note": "[OSU-A9M, [1-(4-chloro-3-nitro-benzenesulfonyl)-5-methyl-1H-indol-3-yl]-methanol]", "values": [{"measurement": "TGI", "setting": "M14", "result": "2.88E−6"}, {"measurement": "GI50", "setting": "M14; Homo sapiens", "result": 1.52, "unit": "µM"}, {"measurement": "CC50", "setting": "M14; Homo sapiens, read-out: LC50 (the source's name)", "result": 5.43, "unit": "µM"}, {"measurement": "Percent Growth", "setting": "M14; Log10 Concentration −4.0", "result": "−100", "unit": "%"}, {"measurement": "Percent Growth", "setting": "M14; Log10 Concentration −5.0", "result": "−98", "unit": "%"}, {"measurement": "Percent Growth", "setting": "M14; Log10 Concentration −6.0", "result": 83, "unit": "%"}, {"measurement": "Percent Growth", "setting": "M14; Log10 Concentration −7.0", "result": 97, "unit": "%"}, {"measurement": "Percent Growth", "setting": "M14; Log10 Concentration −8.0", "result": 95, "unit": "%"}, {"measurement": "TGI", "setting": "MDA-MB-435", "result": "2.93E−6"}, {"measurement": "GI50", "setting": "MDA-MB-435; Homo sapiens", "result": 1.52, "unit": "µM"}, {"measurement": "LC50 (50% lethal concentration)", "setting": "MDA-MB-435; Homo sapiens", "result": 5.64, "unit": "µM"}, {"measurement": "Percent Growth", "setting": "MDA-MB-435; Log10 Concentration −4.0", "result": "−92", "unit": "%"}, {"measurement": "Percent Growth", "setting": "MDA-MB-435; Log10 Concentration −5.0", "result": "−94", "unit": "%"}, {"measurement": "Percent Growth", "setting": "MDA-MB-435; Log10 Concentration −6.0", "result": 82, "unit": "%"}, {"measurement": "Percent Growth", "setting": "MDA-MB-435; Log10 Concentration −7.0", "result": 87, "unit": "%"}, {"measurement": "Percent Growth", "setting": "MDA-MB-435; Log10 Concentration −8.0", "result": 95, "unit": "%"}]}]}
